Measured values: patent US20120301895A1, “METHODS OF MODULATING BINDING OF SON OF SEVENLESS TO PHOSPHATIDIC ACID AND IDENTIFYING COMPOUNDS THAT MODULATE SUCH BINDING” (THE RESEARCH FOUNDATION OF STATE UNIVERSITY OF NEW YORK, priority 2007, published 2012)

Test system: Ras
Assay: Ras activation pull-down assay (Raf1 Ras binding domain) in MDA-MB-231 cells
Type: cell-based, human
Settings: 0.5% serum
Procedure: In FIG. 14A, MDA-MB-231 cells were plated and then placed in media containing 0.5% media 24 hr later. 24 hr later, the cells were treated with either DMSO or honokiol (20 μM) as indicated for 2 hr. At this point the cells were harvested and lysates were prepared and treated with the immobilized Ras binding domain of Raf1 as in FIGS. 12A-C. Ras-GTP bound to the Raf1 binding domain was recovered and subjected to Western blot analysis using the Pan-Ras antibody. Total Ras in the cell lysates and actin levels were also examined by Western blot analysis. In FIG. 14B, MDA-MB-231 cells were plated and 24 hr later were shifted to media containing 0.5% serum. The cells were then treated with EGF (200 ng/ml) for 10 min. The cells were also treated with honokiol (20 μM) prior to the addition of EGF for the times indicated. The levels of GTP-bound Ras, total Ras, and actin were then determined as in FIG. 14A. […] Cells were then collected and Ras activation was determined using the pull-down assay as above. Levels of Ras-GTP, Sos, and Ras were determined by Western blot analysis using an antibody that recognized HA. […] Cells were then stimulated with 100 ng/ml EGF for the indicated times (min) and Ras activation was determined as in FIG. 14A. […] Cells were then stimulated with 100 ng/ml EGF for the indicated times (min) and Ras activation was determined as in FIG. 14A. […]

## C=CCc1ccc(O)c(-c2ccc(O)c(CC=C)c2)c1 [honokiol, Honokiol]
Honokiol 20 μM before EGF 200 ng/ml 10 min
  Ras activation induced by EGF: suppressed
Honokiol 20 μM, 2 hr, effect small, but reproducible
  level of GTP-bound Ras: suppressed
